In assay [1] the test system is SK-OV-3. The assay can be described thus: Cell cycle arrest in human SKOV3 cells assessed as phospho-histone3 level at 100 nM after 24 hrs by immunostaining analysis. In kind it is functional.
The subject of assay [2] is SK-OV-3. The assay is described as follows: Nonspecific cytotoxicity against human SKOV3 cells after 44 hrs by BrdU incorporation assay. In kind it is functional. The note with it: SK-OV-3, 44 h.
Assay [3] relates to SK-OV-3. The assay can be described thus: Cytotoxicity against human SKOV3 cells assessed as inhibition of KSP-mediated cell cycle progression after 44 hrs by BrdU incorporation assay. The note with it: SK-OV-3, 44 h. The class given is functional. A general note: Uptake of a labelled nucleoside into DNA is a usual measure of proliferation.
Assay [4] concerns SK-OV-3. The assay can be described thus: Cell cycle arrest in human SKOV3 cells assessed as monoaster phenotype at 100 nM after 24 hrs by confocal microscopic analysis. In kind it is functional, cell-based.
The test system of assay [5] is SK-OV-3. The assay can be described thus: Cell cycle arrest in human SKOV3 cells assessed as absence of normal mitotic stages at 100 nM after 24 hrs by confocal microscopic analysis. In kind it is functional, cell-based.

The source made the active and inactive calls. The calls are words filed in the database; no cut-off is given here.

Turning to `CC(C)[C@@H](c1nc2cc(Cl)ccc2c(=O)n1Cc1ccccc1)N(CCCN)C(=O)c1ccc(F)cc1`, in the assay with SK-OV-3 [1], the Activity was found to be 2.6%.
One may read the GI50 as the concentration that inhibits growth by half. With `CC(C)[C@H](c1nc2cc(Cl)ccc2c(=O)n1Cc1ccccc1)N(CCCN)C(=O)c1ccc(F)cc1`, the values for the GI50 with SK-OV-3 [2] and in the assay on SK-OV-3 [3] were 61 µM and 0.01 nM, respectively. Besides, in the assay with SK-OV-3 [1], the Activity is given as 58.8%. The outcome in the assay with SK-OV-3 [4] and in the assay with SK-OV-3 [5] was Active.

Values taken from ChEMBL document CHEMBL2321780, “Fluorinated quinazolinones as potential radiotracers for imaging kinesin spindle protein expression” (2013).
